Patent US10768185B2, “Tenofovir detection assay” (TRUSTEES OF BOSTON UNIVERSITY, priority 2017, dated 2020)
Counter-ions that a name gives are not always drawn.

Experiments:
[1] = tested on: anti-TFV antibody conjugated to gold nanoparticles; experiment: Lateral flow assay specificity test; type: binding, rabbit; details: 100 μg/mL in urine
Method: (§1) Hi-Flow Plus HF180 nitrocellulose sheets were laser cut into lateral flow strips and chromatography paper was adhered to the end of the strips as a waste reservoir using autoclave tape. Samples of TFV were prepared at varying concentrations between 10 ng/mL and 100 μg/mL in urine alongside a no TFV control sample. For each sample, 1 μL of conjugated gold nanoparticles was added to 244, of PBS and 804, of sample was added. The mixture was allowed to incubate at room temperature on a rotator for at least 30 minutes. 0.3 μL of anti-rabbit antibody was spotted on the strips as a control spot. 0.3 μL of 2.5 μg/mL BSA-TFV was spotted as the test spot on the strips upstream of the control spot. The spots were allowed to dry and another 0.3 μL of BSA-TFV was spotted on top of the test spot. After incubation, concentrated TBS-T was added to each sample such that the final Tween 20 concentration was 0.05%. One end of each of the lateral flow strips was dipped vertically into the sample tubes such that the solution ran up the nitrocellulose strip and into the waste reservoir via capillary action. The strips were incubated in the solution for 25-30 minutes before being photographed with a Nikon DS-Ri2 camera and analyzed via ImageJ.
The protocol is the same as the competitive lateral flow assay. Solutions of TFV, AZT, Abcavir, AMP, and adenine were made at concentrations of 100 μg/mL alongside a urine only control sample.

[2] = cited from earlier work
[3] = cited from earlier work; remark: listed apart in the source
[4] = tested on: anti-TFV polyclonal antibody; experiment: Immunoprecipitation of TFV by anti-TFV antibody, LC-MS readout; type: binding, rabbit; details: mixture of 50 μg/mL TFV and 1 mg/mL AMP (AMP 20× higher), anti-TFV serum, Protein G beads
Method: LC-MS measurements were taken on an Agilent 1100 series LC/MSD with a Cortecs C18 column (90 Å, 2.7 μm, 4.6 mm×150 mm) from Waters (Milford, Mass.). Samples were dissolved in a solution of 9754, 0.6% trifluoroacetic acid in water and 254, methanol. 204, of sample was injected into a gradient mobile phase outlined in Table 1 at a flowrate of 0.6 mL/min into the column equilibrated at 45° C. and passed through the mass spectrometer set for positive polarity electrospray ionization (ESI+) at a range of 100-1500 m/z.
Two samples were prepared containing a mixture of 1004, of 50 μg/mL TFV and 100 μL of 1 mg/mL AMP. To one tube 375 μL of anti-TFV serum (+IP) was added and to the other 375 μL of PBS (−IP). The samples were incubated while rotating at 4° C. overnight. 3004, of Protein G bead suspension was added to the samples and further incubated at 4° C. for 1 hour. The samples were spun down for 1 minute at 3000 rpm and decanted. The supernatant from the (−IP) sample (−IPsup) was set aside. The beads were then washed and decanted four times with yeast lysis buffer (50 mM HEPES pH 7.6, 1 mM EDTA, 1% Triton X-100, 0.1% sodium deoxycholate, 140 mM NaCl), with the third wash being with a high salt yeast lysis buffer (500 mM NaCl). The beads were then heat eluted for 5 minutes at 95° C. into 100 μL of TE buffer. […]

[5] = tested on: anti-TFV polyclonal antibody; experiment: Competitive dot blot assay; type: binding, rabbit; details: spiked urine, HRP-coupled secondary antibody
Method: Nitrocellulose strips were cut to dimensions of approximately 7 mm by 25 mm. BSA-TFV solution in PBS was diluted down to either 1 μg/mL or 100 ng/mL representing about a 1000-fold or 10,000-fold dilution factor. The strips were then spotted 3 times with luL of diluted BSA-TFV and allowed to dry. The strips were blocked with 5% milk in tris-buffered saline with Tween 20 (TBS-T) for 30 minutes and washed three times with TBS-T. Samples of TFV were prepared at varying concentrations between 1 ng/mL and 1 μg/mL in either TBS-T or human urine alongside a no TFV control sample. Anti-TFV polyclonal antibody from raw serum (e.g., unpurified) was added to the TFV samples at a dilution of 1:50,000 and incubated at room temperature while rotating for at least 1 hour. The strips were incubated in the spiked urine or TBS-T solutions of TFV and anti-TFV polyclonal antibody at room temperature while rotating for 1 hour and washed three times with TBS-T followed by a high-salt (500 mM NaCl) TBS-T wash and a low-salt (50 mM NaCl) TBS-T wash. The strips were then incubated in a 1:8000 dilution in TBS-T of anti-Rabbit antibody conjugated to HRP at room temperature while rotating for 1 hour and washed three times with TBS-T. The HRP was then visualized by pico chemiluminescent substrate and chemiluminescent photographs were taken by a VersaDoc Imaging Model 4000 system from BioRad.

[6] = tested on: anti-TFV antibody conjugated to gold nanoparticles; experiment: Competitive gold nanoparticle lateral flow assay, sensitivity test; type: binding, rabbit
Method: as §1
There was a statistically significant difference between groups as determined by one-way ANOVA (F(5,24)=15.0, p=1.02×10^−6).

Nc1ncnc2nc[nH]c12 [Adenine, adenine]
staining of test area (no staining = positive for TFV) [1]: staining in both the test area and control area

Cc1cn([C@H]2C[C@H](N=[N+]=[N-])[C@@H](CO)O2)c(=O)[nH]c1=O [AZT]
staining of test area (no staining = positive for TFV) [1]: staining in both the test area and control area

NNC(=O)c1ccncc1 [INH, isoniazid]
urinary concentrations of INA ([2]; typical dose 250 mg/day for a 50 kg patient): ~100 µg/mL | oral dose recovered in the urine as INA ([2]; within 24 hr): 30-40%

CC(C)OC(=O)OCOP(=O)(CO[C@H](C)Cn1cnc2c(N)ncnc21)OCOC(=O)OC(C)C [TDF, tenofovir disoproxil fumarate]
urine concentration of TFV ([3]; patient taking 300 mg TDF daily): around 23 μg/mL

C[C@H](Cn1cnc2c(N)ncnc21)OCP(=O)(O)O [TFV, Tenofovir]
presence in immunoprecipitation product by LC-MS [4]: presence | lower limit of detection [5]: 35 nM | test spot intensity versus no-TFV control (ANOVA, Tukey post hoc) ([6]; 1 μg/mL, 10 μg/mL and 100 μg/mL TFV in urine, N=5): statistically significant differences | lower limit of detection / sensitivity ([6]; spiked urine, preliminary): 1 µg/mL | staining of test area (no staining = positive for TFV) [1]: no staining | concentration of TFV in urine ([3]; 300 mg ingested only once, after 24-72 hours): 1000 to 10000 ng/mL | urinary concentration of TFV relative to plasma concentration ([3]; patients on TFV regimens): over 100 ×

Nc1nc(NC2CC2)c2ncn([C@H]3C=C[C@@H](CO)C3)c2n1 [Abcavir]
staining of test area (no staining = positive for TFV) [1]: staining in both the test area and control area

CC(C)OC(=O)[C@H](C)N[P@](=O)(CO[C@H](C)Cn1cnc2c(N)ncnc21)Oc1ccccc1 [TAF, tenofovir alafenamide]
decrease in TFV plasma concentrations ([3]; TAF 25 mg per day, compared with TDF): ~10 ×

Nc1ncnc2c1ncn2[C@@H]1O[C@H](COP(=O)(O)O)[C@@H](O)[C@H]1O [AMP, adenosine monophosphate]
presence in immunoprecipitation product by LC-MS [4]: absence | staining of test area (no staining = positive for TFV) [1]: staining in both the test area and control area
